These results are taken from patent US5077309A, “Prostaglandins” (National Research Development Corporation, priority 1986, dated 1991).

The target of data set [1] is T1, human platelet system (thromboxane receptor sites) (Homo sapiens, UniProt P21731).
T1 construct: Washed platelets are prepared by centrifugation; endogenous in cells; host or cells: washed human platelets
T1 sequence (P21731 1-343): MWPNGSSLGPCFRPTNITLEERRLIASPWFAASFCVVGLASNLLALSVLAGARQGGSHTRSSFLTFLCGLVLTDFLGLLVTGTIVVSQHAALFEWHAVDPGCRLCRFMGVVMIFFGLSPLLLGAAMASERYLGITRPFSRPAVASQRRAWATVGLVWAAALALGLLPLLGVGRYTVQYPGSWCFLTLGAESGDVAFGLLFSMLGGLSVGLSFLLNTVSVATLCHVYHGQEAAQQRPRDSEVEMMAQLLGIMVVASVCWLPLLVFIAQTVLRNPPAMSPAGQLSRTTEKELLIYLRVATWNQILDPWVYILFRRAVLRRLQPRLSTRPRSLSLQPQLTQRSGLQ
Kind of data set: Human platelet system: antagonism of 11,9-(epoxymethano) PGH2-induced aggregation of washed platelets (Gaddum-Schild KB). It counts as cell-based. Particulars: agonist 11,9-(epoxymethano) PGH2, compound added 5 minutes before agonist, read-out: affinity constant KB (converted). The procedure: Washed platelets are prepared by centrifugation of plateletrich human plasma at 600×g for 20 minutes. The platelet pellet is resuspended in Ca^++ -free Kreb's solution.
Addition of the agonist 11.9-(epoxymethano) PGH2 (1×10^-7 to 5×10^-7 M) causes immediate aggregation recorded as an increase in light transmission (600 nm). In a second experiment the compound under test is added 5 minutes previous to the addition of the PGH2 analogue. The dose of the PGH2 analogue added is then increased to a level which gives a similar response to that obtained in the absence of antagonist.
(§1) In the case of each system, the affinity constant, KB, for the compound under test is calculated according to the Gaddum-Schild equation (based on Law of Mass Action). [formula]

Another data set deals with human platelet system. Briefly: Prostacyclin-like activity in human platelet system (antagonism of ADP). In kind it is cell-based.
The target in the next data set is T2, rabbit aorta (Oryctolagus cuniculus, UniProt Q6WQI8).
T2 construct: functional antagonism of U46619 contraction
T2 sequence (Q6WQI8 1-233): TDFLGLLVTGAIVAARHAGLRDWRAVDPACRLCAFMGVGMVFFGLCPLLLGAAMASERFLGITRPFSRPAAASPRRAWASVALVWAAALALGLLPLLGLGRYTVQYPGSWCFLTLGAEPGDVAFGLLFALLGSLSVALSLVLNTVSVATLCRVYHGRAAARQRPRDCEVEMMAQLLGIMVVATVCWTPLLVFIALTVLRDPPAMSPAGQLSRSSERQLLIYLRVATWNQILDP
Briefly: Rabbit aorta system: antagonism of 11,9-(epoxymethano) PGH2 tension response in thoracic aorta strips (Gaddum-Schild KB). In kind it is cell-based. Particulars: agonist 11,9-(epoxymethano) PGH2; compound added 30 minutes before agonist; head KB × 10^-6. The procedure: Spiral strips of thoracic aorta are suspended in Kreb's Henseleit solution and aerated with 95% O2 /5% CO2 at 37° C. Tension changes are recorded with a Grass FT03 force transducer. Initially, cumulative dose response curves to 11,9-(epoxymethanol) PGH2 (2×10^-9,1×10^-8, […] and 2.5×10^-7 M) are obtained. In a second experiment the individual compounds are added 30 minutes previous to the addition of the series of agonist doses.
as §1

Data set [2] has as its system guinea pig bronchoconstriction. Briefly: Modified Konzett-Rossler test: inhibition of PGH2 analogue-induced bronchoconstriction in anaesthetised guinea pig. It counts as in vivo. As to the method: A male albino guinea pig is anaethetised with a mixture of allyl barbituric acid and ethyl carbamate and the guinea pig is given intravenously a dose of 0.35 μg/kg of 11,9-(epoxymethane) PGH2. After a further period of 10 minutes, the guinea pig is treated intravenously with a dose of 0.3 mg/kg of trans-5-(6'-carboxy-5'-oxahexyl)-6-(1'-[N-phenylthiocarbamoyl-hydrazono]-ethyl-bicyclo [2,2,2] octane.
The guinea pig is then used in a modified Konzett-Rossler test which gives a measure of the inhibition produced by the test compound of the bronchoconstiction resulting from administration of the PGH2 derivative. This test involves artificially respiring the animals and measuring the amount of residual air with a pressure transducer.

In a further data set the target is T3, guinea pig trachea (Cavia porcellus, UniProt A0A286Y4I8).
T3 construct: from tissue; host or cells: guinea pig trachea, spiral strips
T3 sequence (A0A286Y4I8 1-347): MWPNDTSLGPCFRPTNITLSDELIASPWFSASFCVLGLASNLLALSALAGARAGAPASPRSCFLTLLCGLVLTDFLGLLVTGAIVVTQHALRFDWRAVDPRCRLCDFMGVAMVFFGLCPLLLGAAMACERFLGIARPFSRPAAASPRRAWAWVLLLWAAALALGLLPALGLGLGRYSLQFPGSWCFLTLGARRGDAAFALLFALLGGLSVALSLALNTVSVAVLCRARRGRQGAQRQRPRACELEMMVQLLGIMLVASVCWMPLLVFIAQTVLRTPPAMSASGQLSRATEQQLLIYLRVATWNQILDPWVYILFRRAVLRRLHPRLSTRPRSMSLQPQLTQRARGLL
Briefly: Guinea pig trachea system: antagonism of 11,9-(epoxymethano) PGH2 tension response in trachea strips (Gaddum-Schild KB). In kind it is cell-based. Conditions: agonist 11,9-(epoxymethano) PGH2; compound added 50 minutes before agonist; head KB × 10^-6. The procedure:
Spiral strips of trachea are suspended in Kreb's-Henseleit solution, additionally containing atropine sulphate (2×10^-8 M) and indomethacin (10^-6 M), aerated with 95% O2 /5% CO2 and maintained at 37° C. Tension changes are recorded with a Grass FT03 force transducer. Initially, cumulative dose response curves to the agonist 11,9-(epoxymethano) PGH2 are obtained (typically at the same concentrations as for the rabbit aorta system). In a second experiment, the compound under test is added 50 minutes previous to the addition of the series of agonist doses.
as §1

One may read the Kb as the affinity of an antagonist, worked out from how it opposes an agonist.

On to `CC(=NNC(=S)Nc1ccccc1)[C@@H]1[C@H]2CC[C@H](C2)[C@H]1C/C=C\CCCC(=O)O` (relative stereo) [5-endo-(6'-carboxyhex-2'-Z-enyl)-6-exo-(1'-[N-(phenylthiocarbamoyl)-hydrazono]-ethyl-bicyclo [2,2,1]heptane, reference compound], for which the antagonist equilibrium constant (Kb) in data set [1] is 14.3 nM.
Take `CC(=NOC(c1ccccc1)c1ccccc1)[C@@H]1C2CCC(CC2)[C@H]1CCCCOCC(=O)O` (relative stereo) [Example 3, trans-5-(6'-Carboxy-5'-oxahexyl)-6-[1'-(O-diphenylmethoxyimino)ethyl]-bicyclo [2,2,2] octane]: the “prostacyclin-like activity as evidenced by antagonism of ADP” value with human platelet system is recorded as “very little prostacyclin-like activity”.
`CC(=NNC(=S)Nc1ccccc1)[C@@H]1C2CCC(CC2)[C@H]1CCCCOCC(=O)O` (relative stereo) [Example 4, trans-5-(6'-Carboxy-5'-oxahexyl)-6-(1'-[N-(phenylthiocarbamoyl)-hydrazono]-ethyl)-bicyclo [2,2,2] octane]: the Kb in data set [1] was 4.76 nM; on rabbit aorta, 167 nM. In addition, in data set [2] (0.3 mg/kg intravenous, 11,9-(epoxymethano) PGH2 0.35 μg/kg i.v.), the “inhibition of bronchoconstriction resulting from the PGH2 analogue” value is recorded as “markedly blocked the action of the PGH2 analogue”. In data set [2] (0.3 mg/kg, control without prior administration of PGH2 analogue), the “bronchoconstriction caused by compound itself” value is recorded as “did not itself lead to any observable bronchoconstriction”.
Take `COc1ccc(NC(=O)NN=C(C)[C@@H]2C3CCC(CC3)[C@H]2CCCCOCC(=O)O)cc1` (relative stereo) [Example 5, trans-5-(6'-Carboxy-5'-oxahexyl)-6-(7'-[N-(p-methoxyphenyl-carbamoyl)-hydrazono]-ethyl)-bicyclo [2,2,2] octane]: on guinea pig trachea, the Kb was roughly 0.25 nM.
The same measure, in the same setting: then `CCCCCCNC(=S)NN=C(C)[C@@H]1C2CCC(CC2)[C@H]1CCCCOCC(=O)O` (relative stereo) [Example 6, trans-5-(6'-Carboxy-5'-oxahexyl)-6'-(1'-[N-(hexylthiocarbamoyl)-hydrazono]-ethyl)-bicyclo [2,2,2] octane], with 14.3 nM.
For the compound `CC(=NNC(=S)Nc1ccccc1)[C@@H]1C2CCC(CC2)[C@H]1CCCCCOCC(=O)O` (relative stereo) [Example 8, trans-5-(7'-Carboxy-6'-oxaheptyl)-6-(1'-[N-(phenylthiocarbamoyl)-hydrazano]-ethyl)-bicyclo [2,2,2] octane], the Kb at rabbit aorta is 192 nM; at guinea pig trachea, 3.7 nM.
In the same order, the values of `O=C(O)COCCOC[C@@H]1[C@@H]2CC[C@@H](C2)[C@H]1C=NOC(c1ccccc1)c1ccccc1` (relative stereo) [Example 10] are 294 nM and 17.9 nM.
